# Results reported in the supplement of paper PMC10331698.
# ± gives the standard deviation of the averaged measurements.
# Key:
# Test in all cases: level (log10 ratio to DMSO vehicle control); higher = higher biomarker level / cell amount than vehicle control
# Details in all cases: in DMSO
# [1] = compound: C=C(C)C(=O)OCC(F)(F)C(F)(F)C(F)(F)C(F)(F)C(F)(F)C(F)(F)C(F)(F)F
# Protocol: (§1)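 BioMAP Diversity Plus panel of 12 human primary cell co-culture systems (3C, 4H, LPS, SAg, BT, BF4T, BE3C, CASM3C, HDF3CGF, KF3CT, MyoF, Mphg). Compounds were added 1 h before stimulation and left for 24 h (MyoF 48 h; BT 72 h for soluble read-outs or 6 d for IgG). Biomarkers were read by ELISA, cytotoxicity by SRB, PBMC viability and proliferation by Alamar Blue. Each well value was divided by the mean of 8 DMSO control wells on the same plate and log10 transformed; duplicate blinded samples were tested at 4 concentrations.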
# [2] = compound: CC(C)(C)C(=O)CC(=O)C(F)(F)C(F)(F)C(F)(F)F [(Heptafluorobutanoyl)pivaloylmethane]
# Protocol: as §1
# [3] = compound: O=C(O)C(F)(F)C(F)(F)C(F)(F)C(F)(F)C(F)(F)C(F)(F)C(F)(F)C(F)(F)C(F)(F)C(F)(F)C(F)(F)C(F)(F)C(F)(F)F [Perfluorotetradecanoic acid]
# Protocol: as §1
# [4] = compound: O=C(O)C(F)(F)C(F)(F)C(F)(F)C(F)(F)C(F)(F)C(F)(F)C(F)(F)C(F)(F)Cl [9-Chloro-perfluorononanoic acid]
# Protocol: as §1
# [5] = compound: O=C(O)C(F)(F)OC(F)(F)C(F)(F)OC(F)(F)C(F)(F)C(F)(F)C(F)(F)F [Perfluoro-3,6-dioxadecanoic acid]
# Protocol: as §1
# [6] = compound: O=C(O)CCC(F)(F)C(F)(F)C(F)(F)C(F)(F)C(F)(F)F [2H,2H,3H,3H-Perfluorooctanoic acid]
# Protocol: as §1
# [7] = compound: O=S(=O)(O)C(F)(F)C(F)(F)C(F)(F)C(F)(F)C(F)(F)C(F)(F)C(F)(F)C(F)(F)F [Perfluorooctanesulfonic acid]
# Protocol: as §1
Test System,level (log10) ([1]; 6700 nM),level (log10) ([1]; 20000 nM),level (log10) ([2]; 6700 nM),level (log10) ([2]; 20000 nM),level (log10) ([2]; 60000 nM),level (log10) ([3]; 6700 nM),level (log10) ([3]; 20000 nM),level (log10) ([4]; 6700 nM),level (log10) ([4]; 20000 nM),level (log10) ([5]; 6700 nM),level (log10) ([5]; 20000 nM),level (log10) ([5]; 60000 nM),level (log10) ([6]; 6700 nM),level (log10) ([6]; 20000 nM),level (log10) ([6]; 60000 nM),level (log10) ([7]; 6700 nM),level (log10) ([7]; 20000 nM),level (log10) ([7]; 60000 nM)
BF4T:CXCL8/IL-8,0.011 ± 0.013,0.007 ± 0.0099,-0.0045 ± 0.035,-0.002 ± 0.0085,0.0175 ± 0.029,0.0325 ± 0.012,0.0275 ± 0.028,0.112 ± 0.042,0.0875 ± 0.015,0.102 ± 0.0092,0.163 ± 0.011,0.171 ± 0.019,0.0095 ± 0.035,0.033 ± 0.047,0.0645 ± 0.043,-0.0155 ± 0.00071,-0.032 ± 0.014,-0.0185 ± 0.059
SAg:CD62E/E-Selectin,-0.001 ± 0.024,0.0155 ± 0.011,-0.003 ± 0.042,-0.0235 ± 0.005,-0.106 ± 0.04,0 ± 0.0028,0.019 ± 0.0028,-0.017 ± 0.0042,0.017 ± 0.014,0.027 ± 0.058,0.0485 ± 0.025,0.065 ± 0.081,-0.01 ± 0.03,0.0015 ± 0.025,0.029 ± 0.016,0.012 ± 0.014,0.0205 ± 0.0021,0.04 ± 0.028
LPS:CCL2/MCP-1,0.007 ± 0.0071,0.017 ± 0.0085,-0.01 ± 0.0014,-0.0055 ± 0.018,0.001 ± 0.038,0.013 ± 0.055,0.0055 ± 0.077,0.005 ± 0.038,0.006 ± 0.0028,0.008 ± 0.0085,0.0005 ± 0.0078,-0.042 ± 0.05,0.017 ± 0.011,0.018 ± 0.044,0.0255 ± 0.043,0.0025 ± 0.00071,0.005 ± 0.021,0.0075 ± 0.005
3C:CXCL8/IL-8,-0.0085 ± 0.032,0.03 ± 0.014,-0.015 ± 0.011,-0.007 ± 0.045,0.016 ± 0.079,-0.0045 ± 0.032,0.0485 ± 0.076,0.005 ± 0.037,0.0235 ± 0.063,-0.006,-0.0025 ± 0.0064,0.0305 ± 0.013,-0.032 ± 0.075,0.005 ± 0.0042,0.0265 ± 0.0092,0.009 ± 0.024,0.0095 ± 0.026,0.049 ± 0.047
BE3C:IL-1alpha,-0.008 ± 0.013,0.0405 ± 0.042,-0.0015 ± 0.021,-0.0035 ± 0.0035,-0.003 ± 0.021,0 ± 0.033,0.0145 ± 0.005,0.023 ± 0.017,-0.0765 ± 0.026,-0.0135 ± 0.0021,-0.0005 ± 0.0078,-0.165 ± 0.021,-0.0075 ± 0.0064,-0.0125 ± 0.019,-0.005,0.0315 ± 0.023,0.0055 ± 0.016,-0.237 ± 0.2
BF4T:CCL2/MCP-1,-0.008 ± 0.035,0.0195 ± 0.013,-0.0085 ± 0.0064,0.004 ± 0.038,-0.223 ± 0.34,0.0095 ± 0.016,0.0045 ± 0.012,-0.034 ± 0.028,-0.0785 ± 0.044,-0.175 ± 0.031,-0.095 ± 0.016,-0.16 ± 0.052,0.0285 ± 0.015,-0.011 ± 0.031,-0.0235 ± 0.096,0.0145 ± 0.005,0.0095 ± 0.035,-0.0565 ± 0.21
BE3C:HLA-DR,0.008 ± 0.0085,0.001 ± 0.013,0.0115 ± 0.0021,0.01 ± 0.0042,-0.017 ± 0.0057,-0.013 ± 0.041,-0.0135 ± 0.06,-0.0575 ± 0.025,-0.445 ± 0.052,-0.038 ± 0.021,-0.08 ± 0.0085,-0.135 ± 0.017,0 ± 0.0042,-0.009 ± 0.0071,-0.0175 ± 0.012,-0.0155 ± 0.016,-0.189 ± 0.014,-0.409 ± 0.1
BF4T:CCL26/Eotaxin-3,0.002 ± 0.055,-0.0155 ± 0.042,0.009 ± 0.048,-0.0205 ± 0.032,-0.0065 ± 0.0064,-0.074 ± 0.0057,-0.057 ± 0.059,-0.144 ± 0.016,-0.27 ± 0.014,-0.241 ± 0.012,-0.23 ± 0.018,-0.231 ± 0.046,-0.0305 ± 0.013,-0.0615 ± 0.029,-0.0695 ± 0.11,-0.0595 ± 0.026,-0.155 ± 0.0085,-0.192 ± 0.097
LPS:CD141/Thrombomodulin,0.0115 ± 0.019,-0.015 ± 0.025,-0.013 ± 0.037,-0.0095 ± 0.042,0.0325 ± 0.0021,0.009 ± 0.1,-0.002 ± 0.072,0.0485 ± 0.033,0.064 ± 0.03,0.0245 ± 0.025,0.001 ± 0.04,-0.0235 ± 0.0078,0.0745 ± 0.043,0.048 ± 0.089,0.009 ± 0.088,-0.03 ± 0.0014,-0.01 ± 0.0071,-0.036 ± 0.031
4H:CD62P/P-selectin,-0.0205 ± 0.076,-0.0315 ± 0.063,-0.045 ± 0.089,-0.032 ± 0.078,-0.076 ± 0.16,0.0015 ± 0.011,0.0055 ± 0.021,-0.001 ± 0.065,0.0815 ± 0.023,0.015 ± 0.09,0.0205 ± 0.066,0.0165 ± 0.013,0.005 ± 0.048,-0.041 ± 0.073,0.002 ± 0.034,0.0345 ± 0.0078,0.061 ± 0.016,0.097 ± 0.018
LPS:CD106/VCAM-1,-0.021 ± 0.05,-0.0085 ± 0.046,-0.0315 ± 0.047,-0.042 ± 0.017,-0.021 ± 0.034,-0.036 ± 0.033,-0.0565 ± 0.039,-0.008 ± 0.045,0.003 ± 0.037,0.002 ± 0.037,-0.0175 ± 0.035,-0.092 ± 0.014,0.006 ± 0.023,0.018 ± 0.033,-0.016 ± 0.082,-0.009 ± 0.0085,-0.017 ± 0.011,-0.023 ± 0.027
SAg:CD40,-0.0375 ± 0.00071,-0.0425 ± 0.011,-0.0125 ± 0.011,-0.0335 ± 0.0021,-0.0515 ± 0.0078,-0.0395 ± 0.069,-0.081 ± 0.085,-0.013 ± 0.033,-0.024 ± 0.031,0.003 ± 0.0028,-0.0195 ± 0.016,-0.08 ± 0.052,-0.0325 ± 0.054,-0.025 ± 0.052,-0.034 ± 0.048,-0.0165 ± 0.05,-0.032 ± 0.038,-0.054 ± 0.013
BT:sIL-2,0.012 ± 0.0099,0.0075 ± 0.047,-0.0485 ± 0.069,-0.022 ± 0.0057,0.0155 ± 0.067,0.0535 ± 0.011,0.0415 ± 0.069,-0.0175 ± 0.066,-0.0565 ± 0.1,0.0465 ± 0.036,0.0285 ± 0.16,-0.011 ± 0.095,-0.0225 ± 0.036,0.0065 ± 0.044,-0.05 ± 0.072,0.0065 ± 0.0078,-0.0215 ± 0.044,0.014 ± 0.027
BF4T:CD106/VCAM-1,0.015 ± 0.014,0.0105 ± 0.05,0.0075 ± 0.015,-0.002 ± 0.0042,-0.005,-0.011 ± 0.014,-0.037 ± 0.031,-0.0485 ± 0.005,-0.141 ± 0.011,-0.0965 ± 0.018,-0.083 ± 0.0099,-0.0925 ± 0.03,-0.011 ± 0.024,-0.03 ± 0.0057,-0.007 ± 0.093,-0.0065 ± 0.0021,-0.0155 ± 0.012,-0.016 ± 0.03
